Assay [1] in a line: Antimigraine activity in bovine citreated platelet assessed as inhibition of [14C]serotonin release after 6 mins by scintillation counting. Particulars: Bos taurus, 0.1 h. Type of assay: functional, cell-based.
Assay [2] can be described thus: Antimigraine activity in human citreated platelet assessed as inhibition of [14C]serotonin release after 6 mins by scintillation counting. Type of assay: functional, cell-based. Particulars: 0.1 h.
A short description of assay [3]: Antimigraine activity in ADP-stimulated bovine citreated platelet assessed as inhibition of [14C]serotonin release at 100 uM after 6 mins by scintillation counting. It is filed as functional. Particulars: Bos taurus, 0.1 h.

For 3 molecules, IC50 and inhibition results are on record in ChEMBL document CHEMBL1149729, “A bioassay for inhibition of serotonin release from bovine platelets” (J Nat Prod, 1992).

Counter-ions that a name gives are not always drawn. Some results are limits rather than exact numbers.

With `C=C1C(=O)O[C@@H]2C[C@@]3(C)CCCC(=C)[C@@H]3C[C@H]12` [ISOALANTOLACTONE], the IC50 in assay [1] was over 516 µM.

In the case of `C=C1C(=O)O[C@@H]2C3O[C@]3(C)CC/C=C(\C)CC[C@@H]12` (stereo not given in full), the IC50 in assay [2] came out at 5.64 µM. Further, the inhibition at 100 µM in assay [3] is 20.3%.

For `COc1ccc(CCN(C)CCCC(C#N)(c2ccc(OC)c(OC)c2)C(C)C)cc1OC` (stereo not given) [VERAPAMIL HYDROCHLORIDE], the IC50 came out at 770 µM in assay [2] and 578 µM in assay [1].
